Laboratory results from patent US8512709B2, “Modified amyloid β peptide” (The Chemo-Sero-Therapeutic Research Institue, priority 2008, dated 2013).

Tested on: Aβ peptide (1-40 amino acid sequence)
Test: Anti-Aβ IgG antibody titer of murine serum after immunization with Aβ peptides (ELISA on immobilized Aβ 1-40)
Assay type: in vivo, C57BL/6 mice
Details: for Antibody titer Animal No. 1 / Antibody titer Animal No. 2 / Antibody titer Animal No. 3 / Antibody titer Animal No. 4: C57BL/6 mouse serum, Day 7 from final 3rd immunization; for Antibody titer Animal No. 1 / Antibody titer Animal No. 2 / Antibody titer Animal No. 3 / Antibody titer Animal No. 4 / Antibody titer Mean: 100 μg/mouse; for Antibody titer Mean: mean of 4 mice, serum Day 7 from final 3rd immunization
[1] = Example 4, result in words on Table 4
[2] = Example 7, result in words on Table 7
[3] = Example 8, result in words on Table 8
[4] = Example 2, result in words on Table 2

AEFRHDSGKGAIIGLMVGC (added cysteine) [2-9•28-37AACys, 2-9+28-37-amino acid Aβ peptide with addition of Cysteine]
Antibody titer Animal No. 1 (Example 4): 7038 ng/mL
Antibody titer Animal No. 2 (Example 4): 29489 ng/mL
Antibody titer Animal No. 3 (Example 4): 16 ng/mL
Antibody titer Animal No. 4 (Example 4): 17 ng/mL
Antibody titer Mean (Example 4): 9139.9 ng/mL
induction of an antibody to Aβ [1]: observed

AEFRHDSGYKGAIIGLMVGC [2-10•28-37AACys, 2-10+28-37-amino acid Aβ peptide with addition of Cysteine]
Antibody titer Animal No. 1 (Example 4): 72890 ng/mL
Antibody titer Animal No. 2 (Example 4): 57573 ng/mL
Antibody titer Animal No. 3 (Example 4): 6094 ng/mL
Antibody titer Animal No. 4 (Example 4): 42593 ng/mL
Antibody titer Mean (Example 4): 44787.5 ng/mL
induction of an antibody to Aβ [1]: observed

DAEFRHDKGAIIGLMVGC [1-7•28-37AACys, 1-7+28-37-amino acid Aβ peptide with addition of Cysteine]
Antibody titer Animal No. 1 (Example 3): 26 ng/mL
Antibody titer Animal No. 2 (Example 3): 27 ng/mL
Antibody titer Animal No. 3 (Example 3): 34 ng/mL
Antibody titer Animal No. 4 (Example 3): 15 ng/mL
Antibody titer Mean (Example 3): 25.6 ng/mL

DAEFRHDSGKGAIIGLMVGC [1-9•28-37AACys, 1-9+28-37-amino acid Aβ peptide with addition of Cysteine]
Antibody titer Animal No. 1 (Example 3): 398 ng/mL
Antibody titer Animal No. 2 (Example 3): 249 ng/mL
Antibody titer Animal No. 3 (Example 3): 2772 ng/mL
Antibody titer Animal No. 4 (Example 3): 8899 ng/mL
Antibody titer Mean (Example 3): 3079.5 ng/mL
induction of an antibody to Aβ (Example 3, result in words on Table 3): observed

DAEFRHDSGYAIIGLMVGGVVIAC [1-10•30-42AACys, 1-10+30-42-amino acid Aβ peptide with addition of Cysteine]
Antibody titer Animal No. 1 (Example 1): 9 ng/mL
Antibody titer Animal No. 2 (Example 1): 7 ng/mL
Antibody titer Animal No. 3 (Example 1): 11 ng/mL
Antibody titer Animal No. 4 (Example 1): 8 ng/mL
Antibody titer Mean (Example 1): 8.4 ng/mL

DAEFRHDSGYEVHHQKLVCFFAEDVG [1-18Cys19-25AA, 25-amino acid Aβ peptide wherein cysteine is inserted between residues Nos. 18 and 19]
Antibody titer Animal No. 1 (Example 7): 1.5 ng/mL
Antibody titer Animal No. 2 (Example 7): 6.6 ng/mL
Antibody titer Animal No. 3 (Example 7): 71.4 ng/mL
Antibody titer Animal No. 4 (Example 7): 1398 ng/mL
Antibody titer Mean (Example 7): 369.4 ng/mL
induction of an antibody to Aβ [2]: observed in one of four cases

DAEFRHDSGYEVHHQKLVCFFAEDVGS [1-18Cys19-26AA, 26-amino acid Aβ peptide wherein cysteine is inserted between residues Nos. 18 and 19]
Antibody titer Animal No. 1 (Example 7): 127.5 ng/mL
Antibody titer Animal No. 2 (Example 7): 7001 ng/mL
Antibody titer Animal No. 3 (Example 7): 15779 ng/mL
Antibody titer Animal No. 4 (Example 7): 164 ng/mL
Antibody titer Mean (Example 7): 5767.9 ng/mL
induction of an antibody to Aβ [2]: observed

DAEFRHDSGYEVHHQKLVCFFAEDVGSN [1-18Cys19-27AA, 27-amino acid Aβ peptide wherein cysteine is inserted between residues Nos. 18 and 19]
Antibody titer Animal No. 1 (Example 7): 2482 ng/mL
Antibody titer Animal No. 2 (Example 7): 3125 ng/mL
Antibody titer Animal No. 3 (Example 7): 2631 ng/mL
Antibody titer Animal No. 4 (Example 7): 17.2 ng/mL
Antibody titer Mean (Example 7): 2063.8 ng/mL
induction of an antibody to Aβ [2]: observed

DAEFRHDSGYEVHHQKLVCFFAEDVGSNK [1-18Cys19-28AA, 28-amino acid Aβ peptide wherein cysteine is inserted between residues Nos. 18 and 19]
Antibody titer Animal No. 1 (Example 6): 448154 ng/mL
Antibody titer Animal No. 2 (Example 6): 97146 ng/mL
Antibody titer Animal No. 3 (Example 6): 233411 ng/mL
Antibody titer Animal No. 4 (Example 6): 57794 ng/mL
Antibody titer Mean (Example 6): 209126.3 ng/mL

DAEFRHDSGYEVHHQKLVCFFAEDVGSNKC [1-18Cys19-28AACys]
Antibody titer Animal No. 1 (Example 6): 19908 ng/mL
Antibody titer Animal No. 2 (Example 6): 361259 ng/mL
Antibody titer Animal No. 3 (Example 6): 4161 ng/mL
Antibody titer Animal No. 4 (Example 6): 29412 ng/mL
Antibody titer Mean (Example 6): 103685.0 ng/mL

DAEFRHDSGYEVHHQKLVCKGAIIGLMVG [1-18Cys28-37AA, Aβ residues 1-18, cysteine, then Aβ residues 28-37]
Antibody titer Animal No. 1 (Example 8): 12541 ng/mL
Antibody titer Animal No. 2 (Example 8): 1964 ng/mL
Antibody titer Animal No. 3 (Example 8): 599 ng/mL
Antibody titer Animal No. 4 (Example 8): 25102 ng/mL
Antibody titer Mean (Example 8): 10051.5 ng/mL
induction of an antibody to Aβ [3]: observed

DAEFRHDSGYEVHHQKLVCKGAIIGLMVGC [1-18Cys28-37AACys, Aβ residues 1-18, cysteine, Aβ residues 28-37, C-terminal cysteine]
Antibody titer Animal No. 1 (Example 8): 1073 ng/mL
Antibody titer Animal No. 2 (Example 8): 43 ng/mL
Antibody titer Animal No. 3 (Example 8): 10 ng/mL
Antibody titer Animal No. 4 (Example 8): 4864 ng/mL
Antibody titer Mean (Example 8): 1497.5 ng/mL
induction of an antibody to Aβ [3]: observed

DAEFRHDSGYEVHHQKLVKGAIIGLMVG [1-18•28-37AA, reference compound]
Antibody titer Animal No. 1 (Example 8): 11 ng/mL
Antibody titer Animal No. 2 (Example 8): 11 ng/mL
Antibody titer Animal No. 3 (Example 8): 11 ng/mL
Antibody titer Animal No. 4 (Example 8): 9 ng/mL
Antibody titer Mean (Example 8): 10.5 ng/mL

DAEFRHDSGYEVHHQKLVKGAIIGLMVGC [1-18•28-37AACys]
Antibody titer Animal No. 1 (Example 8): 11 ng/mL
Antibody titer Animal No. 2 (Example 8): 9 ng/mL
Antibody titer Animal No. 3 (Example 8): 10 ng/mL
Antibody titer Animal No. 4 (Example 8): 13 ng/mL
Antibody titer Mean (Example 8): 10.75 ng/mL

DAEFRHDSGYEVHHQKLVKGAIIGLMVGGVVIAC [1-18•28-42AACys, 1-18+28-42-amino acid Aβ peptide with addition of Cysteine]
Antibody titer Animal No. 1 (Example 5): 69336 ng/mL
Antibody titer Animal No. 2 (Example 5): 41211 ng/mL
Antibody titer Animal No. 3 (Example 5): 51611 ng/mL
Antibody titer Animal No. 4 (Example 5): 7004 ng/mL
Antibody titer Mean (Example 5): 42290.5 ng/mL

DAEFRHDSGYGAIIGLMVGGVVIAC [1-10•29-42AACys, 1-10+29-42-amino acid Aβ peptide with addition of Cysteine]
Antibody titer Animal No. 1 (Example 1): 16 ng/mL
Antibody titer Animal No. 2 (Example 1): 16 ng/mL
Antibody titer Animal No. 3 (Example 1): 87 ng/mL
Antibody titer Animal No. 4 (Example 1): 11 ng/mL
Antibody titer Mean (Example 1): 32.6 ng/mL

DAEFRHDSGYKGAIIGLC [1-10•28-34AACys, 1-10+28-34-amino acid Aβ peptide with addition of Cysteine]
Antibody titer Animal No. 1 (Example 2): 29 ng/mL
Antibody titer Animal No. 2 (Example 2): 30 ng/mL
Antibody titer Animal No. 3 (Example 2): 26 ng/mL
Antibody titer Animal No. 4 (Example 2): 25 ng/mL
Antibody titer Mean (Example 2): 27.4 ng/mL

DAEFRHDSGYKGAIIGLMC [1-10•28-35AACys, 1-10+28-35-amino acid Aβ peptide with addition of Cysteine]
Antibody titer Animal No. 1 (Example 2): 44 ng/mL
Antibody titer Animal No. 2 (Example 2): 19 ng/mL
Antibody titer Animal No. 3 (Example 2): 8361 ng/mL
Antibody titer Animal No. 4 (Example 2): 220 ng/mL
Antibody titer Mean (Example 2): 2161.0 ng/mL

DAEFRHDSGYKGAIIGLMVC [1-10•28-36AACys, 1-10+28-36-amino acid Aβ peptide with addition of Cysteine]
Antibody titer Animal No. 1 (Example 2): 11821 ng/mL
Antibody titer Animal No. 2 (Example 2): 259763 ng/mL
Antibody titer Animal No. 3 (Example 2): 77 ng/mL
Antibody titer Animal No. 4 (Example 2): 44922 ng/mL
Antibody titer Mean (Example 2): 79145.6 ng/mL
induction of an antibody to Aβ [4]: observed

DAEFRHDSGYKGAIIGLMVGC [1-10•28-37AACys, 1-10+28-37-amino acid Aβ peptide with addition of Cysteine]
Antibody titer Animal No. 1 (Example 2): 79708 ng/mL
Antibody titer Animal No. 2 (Example 2): 1531 ng/mL
Antibody titer Animal No. 3 (Example 2): 24694 ng/mL
Antibody titer Animal No. 4 (Example 2): 100619 ng/mL
Antibody titer Mean (Example 2): 51638.0 ng/mL
induction of an antibody to Aβ [4]: observed

DAEFRHDSGYKGAIIGLMVGGC [1-10•28-38AACys, 1-10+28-38-amino acid Aβ peptide with addition of Cysteine]
Antibody titer Animal No. 1 (Example 2): 19149 ng/mL
Antibody titer Animal No. 2 (Example 2): 34270 ng/mL
Antibody titer Animal No. 3 (Example 2): 108780 ng/mL
Antibody titer Animal No. 4 (Example 2): 61824 ng/mL
Antibody titer Mean (Example 2): 56005.8 ng/mL
induction of an antibody to Aβ [4]: observed

DAEFRHDSGYKGAIIGLMVGGVC [1-10•28-39AACys, 1-10+28-39-amino acid Aβ peptide with addition of Cysteine]
Antibody titer Animal No. 1 (Example 2): 139361 ng/mL
Antibody titer Animal No. 2 (Example 2): 10808 ng/mL
Antibody titer Animal No. 3 (Example 2): 13326 ng/mL
Antibody titer Animal No. 4 (Example 2): 230453 ng/mL
Antibody titer Mean (Example 2): 98487.0 ng/mL
induction of an antibody to Aβ [4]: observed

DAEFRHDSGYKGAIIGLMVGGVVC [1-10•28-40AACys, 1-10+28-40-amino acid Aβ peptide with addition of Cysteine]
Antibody titer Animal No. 1 (Example 2): 4560 ng/mL
Antibody titer Animal No. 2 (Example 2): 148622 ng/mL
Antibody titer Animal No. 3 (Example 2): 5118 ng/mL
Antibody titer Animal No. 4 (Example 2): 4988 ng/mL
Antibody titer Mean (Example 2): 40822.0 ng/mL
induction of an antibody to Aβ [4]: observed
